These results are taken from patent publication US10899754B2, “Modulators of indoleamine 2,3-dioxygenase” (GLAXOSMITHKLINE INTELLECTUAL PROPERTY DEVELOPMENT LIMITED, priority 2016, dated 2021).

For data set [1], the system named is human peripheral blood mononuclear cells (PBMC). In words: PBMC cytotoxicity assay (CellTiter-Glo). As to conditions: 2 days, pCC50. The class given is cell-based. Summed up: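 % cytotoxicity was taken from CellTiter-Glo luminescence, using wells without cells and stimulated DMSO wells as references, and fitted by four-parameter curve to give XC50. Cells were human PBMC at 50,000 per well, activated with 100 ng/ml IFN-γ plus 50 ng/ml LPS. Incubation with 11-point, 3-fold dilution series ran for 2 days at 37 °C.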

Data set [2] deals with indoleamine 2, 3-dioxygenase (IDO1) (Homo sapiens, UniProt P14902). In words: IDO1 PBMC RapidFire MS assay (kynurenine detection by mass spectrometry). Type of data set: cell-based. More on the design: to induce the expression of indoleamine 2, 3-dioxygenase (IDO1); host or cells: human PBMC stimulated with IFN-gamma and LPS. Particulars: human PBMC stimulated with IFN-γ and LPS, 2 days, pIC50, read-out: PBMC PXC50 (converted). The essentials: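 Kynurenine output, read by RapidFire mass spectrometry as ratio to an internal standard, was measured after 2-day compound exposure (11-point, 3-fold dilutions) of human PBMCs induced with 100 ng/ml IFN-γ and 50 ng/ml LPS. Cell viability tracked alongside via ATP luminescence; XC50 from curve fitting.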
Sequence of indoleamine 2, 3-dioxygenase (IDO1) (P14902 whole entry): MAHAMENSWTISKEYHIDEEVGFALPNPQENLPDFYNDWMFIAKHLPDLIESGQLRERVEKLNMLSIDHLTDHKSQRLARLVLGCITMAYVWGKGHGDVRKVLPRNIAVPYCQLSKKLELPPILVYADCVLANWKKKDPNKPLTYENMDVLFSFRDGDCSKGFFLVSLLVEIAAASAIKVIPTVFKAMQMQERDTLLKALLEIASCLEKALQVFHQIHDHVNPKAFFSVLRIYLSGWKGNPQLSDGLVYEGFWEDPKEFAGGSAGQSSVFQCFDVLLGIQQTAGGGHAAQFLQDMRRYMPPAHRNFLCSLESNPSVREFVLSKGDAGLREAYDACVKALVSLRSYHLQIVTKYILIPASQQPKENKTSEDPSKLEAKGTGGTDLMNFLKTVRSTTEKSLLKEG

On to `CC(C)CN(c1ccc([C@H](C)CC(=O)O)cc1Nc1ncc(C#N)cn1)C1CCOCC1` [example 254, (3R)-3-{3-[(5-cyanopyrimidin-2-yl)amino]-4-[(2-methylpropyl)(oxan-4-yl)amino]phenyl}butanoic acid], for which, in data set [1], the “PBMC TOX PXC50” value is recorded as under 5. The IC50 in data set [2] was 126 nM.
In the case of `CC(C)CN(c1ccc([C@H](C)CC(=O)O)cc1Nc1ncn[nH]1)C1CCOCC1` [example 242, (3R)-3-{4-[(2-methylpropyl)(oxan-4-yl)amino]-3-[(1H-1,2,4-triazol-5-yl)amino]phenyl}butanoic acid], in data set [1], the “PBMC TOX PXC50” value was under 5. Further, the IC50 in data set [2] is 398 nM.
On to `CC(C)CN(c1ccc([C@H](C)Cc2nnn[nH]2)cc1Nc1nc(Cl)ns1)C1CCOCC1` [Example 100, (R)-4-(1-(1H-tetrazol-5-yl)propan-2-yl)-N^2-(3-chloro-1,2,4-thiadiazol-5-yl)-N^1-isobutyl-N^1-(tetrahydro-2H-pyran-4-yl)benzene-1,2-diamine], for which, in data set [1], the “PBMC TOX PXC50” value is under 5. Besides, in data set [2], the IC50 is 2 nM.
As to `CC(C)CN(c1ccc([C@H](C)CC(=O)O)cc1Nc1nc(Cl)ns1)C1CCOCC1` [Example 25, (R)-3-(3-((3-chloro-1,2,4-thiadiazol-5-yl)amino)-4-(isobutyl(tetrahydro-2H-pyran-4-yl)amino)phenyl)butanoic Acid], the “PBMC TOX PXC50” value in data set [1] was under 5. In addition, in data set [2], the IC50 was 3.16 nM.
With `CC(C)CN(CC(C)C)c1ccc([C@H](C)CC(=O)O)cc1Nc1nc(C(F)(F)F)c[nH]1` [Example 85, (R)-3-(4-(diisobutylamino)-3-((4-(trifluoromethyI)-1H-imidazol-2-yl)amino)phenyl)butanoic Acid], the “PBMC TOX PXC50” value in data set [1] is under 5. Besides, in data set [2], the IC50 was 2.51 nM.
For `CC(C)CN(c1ccc(-c2ccccc2C(=O)O)cc1Nc1nc(C(F)(F)F)ns1)C1CC2(C1)CN(C(=O)OC(C)(C)C)C2` [Example 97, 4′-((2-(tert-butoxycarbonyl)-2-azaspiro[3.3]heptan-6-yl) (isobutyl)amino)-3′-((3-(trifluoromethyl)-1,2,4-thiadiazol-5-yl)amino)-[1,1′-biphenyl]-2-carboxylic Acid], in data set [1], the “PBMC TOX PXC50” value is under 5. In addition, the IC50 in data set [2] was 6.31 nM.
Turning to `CC(C)CN(c1ccc([C@H](C)CC(=O)O)cc1Nc1ccc(Cl)c(Cl)n1)C1CCOCC1` [Example 33, (R)-3-(3-((5,6-Dichloropyridin-2-yl)amino)-4-(isobutyl(tetrahydro-2H-pyran-4-yl)amino)phenyl)butanoic Acid], the “PBMC TOX PXC50” value in data set [1] was under 5. Also, the IC50 in data set [2] is 6.31 nM.
With `CC(C)CN(c1ccc(C(C)N)cc1Nc1nc(C(F)(F)F)ns1)C1CCOCC1` (centres unmarked) [example 234, 4-(1-aminoethyl)-N1-(2-methylpropyl)-N1-(oxan-4-yl)-N2-[3-(trifluoromethyl)-1,2,4-thiadiazol-5-yl]benzene-1,2-diamine], in data set [1], the “PBMC TOX PXC50” value is under 5. Besides, the IC50 in data set [2] is 501 nM.
The corresponding values for `CC(C)CN(c1ccc([C@H](C)CC(=O)O)cc1Nc1cnc(Cl)cn1)C1CCOCC1` [Example 12, (R)-3-(3-((5-chloropyrazin-2-yl)amino)-4-(isobutyl(tetrahydro-2H-pyran-4-yl)amino)phenyl)butanoic Acid] are under 5 and 1 nM.
In the case of `CC(C)CN(c1ccc([C@H](C)CC(=O)O)cc1Nc1nc(C#N)c[nH]1)C1CCOCC1` [example 228, (3R)-3-{3-[(4 cyano-1H-imidazol-2-yl)amino]-4-[(2-methylpropyl)(oxan-4-yl)amino]phenyl}butanoic acid], the “PBMC TOX PXC50” value in data set [1] is given as under 5. In addition, the IC50 in data set [2] was 15.8 nM.
For `COCCC(=O)N1CCC(N(CC(C)C)c2ccc([C@H](C)CC(=O)O)cc2Nc2nc(C(F)(F)F)ns2)CC1` [Example 68, (R)-3-(4-(isobutyl(1-(3-methoxypropanoyl)piperidin-4-yl)amino)-3-((3-(trifluoromethyl)-1,2,4-thiadiazol-5-yl)amino)phenyl)butanoic Acid], in that order: under 5 and 2 nM.
With `CC(C)CN(c1ccc([C@H](C)CC(=O)O)cc1Nc1n[nH]c(C(N)=O)n1)C1CCOCC1` [example 227, (3R)-3-{3-[(5-carbamoyl-1H-1,2,4-triazol-3-yl)amino]-4-[(2-methylpropyl)(oxan-4-yl)amino]phenyl}butanoic acid], in data set [1], the “PBMC TOX PXC50” value is on record as under 5. In addition, in data set [2], the IC50 was 501 nM.
In the case of `CC(C)CN(c1ccc([C@H](C)CC(=O)O)cc1Nc1n[nH]c(C(F)(F)F)n1)[C@H]1CC[C@H](O)CC1` (racemic) [example 219, (3RS)-3-{4-[(2-methylpropyl)[(1rs&,4rs&)-4-hydroxycyclohexyl]amino]-3-{[5-(trifluoromethyl)-1H-1,2,4-triazol-3-yl]amino}phenyl}butanoic acid], in data set [1], the “PBMC TOX PXC50” value is given as under 5. Besides, the IC50 in data set [2] is 100 nM.
For `CO[C@H]1CC[C@H](N(CC(C)C)c2ccc([C@H](C)CC(=O)O)cc2Nc2ccc(Cl)cn2)CC1` [Example 55, (R)-3-(3-((5-chloropyridin-2-yl)amino)-4-(isobutyl((1r,4R)-4-methoxycyclohexyl)amino)phenyl)butanoic Acid], the “PBMC TOX PXC50” value in data set [1] is on record as under 5. Besides, the IC50 in data set [2] was 3.16 nM.
In the case of `CC(C)CN(c1ccc(C(C)CC(=O)O)cc1Nc1nnc(C(=O)NC2CC2)s1)C1CCCCC1` (centres unmarked) [example 238, 3-{4-[cyclohexyl(2-methylpropyl)amino]-3-{[5-(cyclopropylcarbamoyl)-1,3,4-thiadiazol-2-yl]amino}phenyl}butanoic acid], the “PBMC TOX PXC50” value in data set [1] is reported as under 5. Also, in data set [2], the IC50 is 20 nM.
With `CC(C)CN(c1ccc([C@H](C)CC(=O)O)cc1Nc1nc(C(F)(F)F)c[nH]1)C1CCOCC1` [Example 114, (R)-3-(4-(isobutyl(tetrahydro-2H-pyran-4-yl)amino)-3-((4-(trifluoromethyl)-1H-imidazol-2-yl)amino)phenyl)butanoic Acid], the “PBMC TOX PXC50” value in data set [1] is under 5. In data set [2], the IC50 was 15.8 nM.
As to `CC(C)CN(c1ccc(C(C)CC(=O)O)cc1Nc1nnc(C(=O)NC(C)C)s1)C1CCCCC1` (centres unmarked) [example 245, 3-{4-[cyclohexyl(2-methylpropyl)amino]-3-({5-[(propan-2-yl)carbamoyl]-1,3,4-thiadiazol-2-yl}amino)phenyl}butanoic acid], the “PBMC TOX PXC50” value in data set [1] is recorded as under 5. Further, the IC50 in data set [2] is 398 nM.
For `CC(C)CN(c1ccc([C@H](C)CC(=O)O)cc1Nc1n[nH]c(C(N)=O)n1)[C@H]1CC[C@H](O)CC1` (racemic) [example 225, (3RS)-3-{3-[(5-carbamoyl-1H-1,2,4-triazol-3-yl)amino]-4-[(2-methylpropyl)[(1rs&,4rs&)-4-hydroxycyclohexyl]amino]phenyl}butanoic acid], in that order: under 5 and 7940 nM.
For `CO[C@H](C)CN(C[C@@H](C)OC)c1ccc([C@H](C)CC(=O)O)cc1Nc1nc(C(F)(F)F)ns1` [example 258, (3R)-3-(4-{bis[(2R)-2-methoxypropyl]amino}-3-{[3-(trifluoromethyl)-1,2,4-thiadiazol-5-yl]amino}phenyl)butanoic acid], the “PBMC TOX PXC50” value in data set [1] was under 5. Besides, the IC50 in data set [2] is 79.4 nM.
In the case of `CC(C)CN(CC(C)C)c1ccc([C@H](C)CC(=O)O)cc1Nc1ccc(=O)n(C)c1` [example 218, (3R)-3-{4-[bis(2-methylpropyl)amino]-3-[(1-methyl-6-oxo-1,6-dihydropyridin-3-yl)amino]phenyl}butanoic acid], the “PBMC TOX PXC50” value in data set [1] is listed as under 5. Also, the IC50 in data set [2] is 2000 nM.
In the case of `CO[C@H]1CC[C@H](N(CC(C)C)c2ccc([C@H](C)CC(=O)O)cc2Nc2n[nH]c(C#N)n2)CC1` (racemic) [example 222, (3RS)-3-{3-[(5-cyano-1H-1,2,4-triazol-3-yl)amino]-4-[(2-methylpropyl)[(1rs&,4rs&)-4-methoxycyclohexyl]ami-no]phenyl}butanoic acid], the “PBMC TOX PXC50” value in data set [1] is on record as under 5. In data set [2], the IC50 was 200 nM.
As for `CC(C)CN(CC(C)C)c1ccc(C(C)CC(=O)O)cc1Nc1nnnn1C` (centres unmarked) [example 252, 3-{4-[bis(2-methylpropyl)amino]-3-[(1-methyl-1H-1,2,3,4-tetrazol-5-yl)amino]phenyl}butanoic acid], the “PBMC TOX PXC50” value in data set [1] was under 5. Also, the IC50 in data set [2] is 3980 nM.
For `CC(C)CN(c1ccc([C@H](C)CC(=O)O)cc1Nc1ncc(Cl)cn1)C1CCOCC1` [example 231, (3R)-3-{3-[(5-chloropyrimidin-2-yl)amino]-4-[(2-methylpropyl)(oxan-4-yl)amino]phenyl}butanoic acid], in that order: under 5 and 25.1 nM.
For the molecule `CC(C)CN(c1ccc(C(C)Nc2c(O)c(=O)c2=O)cc1Nc1nc(C(F)(F)F)ns1)C1CCOCC1` (centres unmarked) [example 256, 3-hydroxy-4-[(1-{4-[(2-methylpropyl)(oxan-4-yl)amino]-3-{[3-(trifluoromethyl)-1,2,4-thiadiazol-5-yl]amino}phenyl}ethyl)amino]cyclobut-3-ene-1,2-dione], the “PBMC TOX PXC50” value in data set [1] is listed as under 5. Further, the IC50 in data set [2] was 2510 nM.
As for `COC(=O)c1c[nH]c(Nc2cc([C@H](C)CC(=O)O)ccc2N(CC(C)C)C2CCOCC2)n1` [Example 29, (R)-3-(4-(isobutyl(tetrahydro-2H-pyran-4-yl)amino)-3-((4-(methoxycarbonyl)-1H-imidazol-2-yl)amino)phenyl)butanoic acid], in data set [1], the “PBMC TOX PXC50” value is under 5. In addition, the IC50 in data set [2] is 6.31 nM.
